Experimental data reported in paper PMC6308302, “Identification of Pharmacokinetic Markers for Guanxin Danshen Drop Pills in Rats by Combination of Pharmacokinetics, Systems Pharmacology, and Pharmacodynamic Assays” (Frontiers in Pharmacology, 2018).
Entries after “also recorded” stand apart in the source; their conditions may differ. Marks after values point to notes of the source that are not given here.

What was measured:
[1] = Stability tests in rat plasma (QC samples, HPLC-MS); conditions: n=5
Description: Accuracy and precision were expressed by relative error (RE) and coefficient of variance (RSD), respectively.

[2] = tested on: Caco-2 cell monolayers; conditions: ref Lu et al., 2008, Liu et al., 2009, Hu et al., 2014, Bowles et al., 2017, cited from earlier work; for Papp(apical→basolateral) / Papp(basolateral→apical): Caco-2 cell monolayers, from literature; for apparent permeability in Caco-2 cell monolayers: previous results
[3] = Multiple component PK study in rat plasma after p.o. GDDP (HPLC-MS); conditions: for determination in rat plasma at the planned successive PK time points / detection in rat plasma: GDDP 0.8 g/kg p.o.; for determination in rat plasma at the planned successive PK time points: 5, 10, 15, 30, 45, 60, and 120 min, LOQ 1.0–1.4 ng/mL; for detection in rat plasma: at 5, 10, 15, 30, 45, or 60 min, LOD 0.5–0.7 ng/mL; for AUC(0-inf) / AUC(0-t) / MRT inf / MRT last / Tmax / Cmax / half-life: Sprague-Dawley, rat, plasma, po
[4] = Aqueous solubility test (vortexing in water); assay type: physicochemical; conditions: thermodynamic from solid; determined, water, 25 °C, 1 atm
Description: Aqueous solubility (S) test of the 17 ingredients was performed by vortexing 10 mg of each ingredient in […] water in a test tube at ambient temperature and 1 atm. After vortexing for 5 min, if the solution is clear, the tested object will be considered as soluble in water. In silico assessment of the physicochemical properties governing permeation and intestinal absorption was carried out for the 17 ingredients studied. Theory aqueous solubility (S) was calculated with ALOGPS 2.1 online software via the Virtual Computational Chemistry Laboratory service (Chemoinformatics Group, Neuherberg, Germany) (VCCLAB^1). The octanol–water partition coefficient (cLogP), the total hydrogen bond count (donors and acceptors), and topological polar surface area (TPSA) were determined using the Molinspiration Property Calculator (Molinspiration Cheminformatics, Bratislava, Slovak Republic^2). Lipinski’s rule of 5 was used to predict the permeability of the compound ([Lipinski et al., 2001]).

[5] = tested on: isoprenaline-induced MI in mice; test: In vivo anti-MI study: isoprenaline-induced myocardial injury (ECG, H&E histology); conditions: for Histopathology of heart tissue (H&E): 40 mg/kg; for ECG (lead II) findings on the fifth day of the trial: 40 mg/kg p.o., isoprenaline 5 mg/kg on days 4 and 5
[6] = 24h in auto-sampler vials, spiked 2 ng/mL
[7] = 24h in auto-sampler vials, spiked 400 ng/mL
[8] = 24h in auto-sampler vials, spiked 1600 ng/mL
[9] = Placing plasma for 6h at 4°C, spiked 2 ng/mL
[10] = Placing plasma for 6h at 4°C, spiked 400 ng/mL
[11] = Placing plasma for 6h at 4°C, spiked 1600 ng/mL
[12] = three freeze-thaw cycles, rat plasma, spiked 2 ng/mL
[13] = three freeze-thaw cycles, rat plasma, spiked 400 ng/mL
[14] = three freeze-thaw cycles, rat plasma, spiked 1600 ng/mL
[15] = 0.4 g/kg, Cmax, rat plasma, GDDP 0.4 g/kg p.o. (Low dose group), n=3
[16] = 0.4 g/kg, t1/2 β, rat plasma, GDDP 0.4 g/kg p.o. (Low dose group), n=3
[17] = 0.8 g/kg, Cmax (high / low plasma drug concentrations), rats, GDDP 0.4 and 0.8 g/kg p.o., classification
[18] = 0.8 g/kg, Cmax, rat plasma, GDDP 0.8 g/kg p.o. (High dose group), n=3
[19] = 0.8 g/kg, t1/2 β (fast / slow elimination type), rats, GDDP 0.4 and 0.8 g/kg p.o., classification
[20] = 0.8 g/kg, t1/2 β, rat plasma, GDDP 0.8 g/kg p.o. (High dose group), n=3
[21] = rat plasma, GDDP 0.4 g/kg p.o. (Low dose group), n=3
[22] = rat plasma, GDDP 0.8 g/kg p.o. (High dose group), n=3
[23] = 40 mg/kg p.o. for 7 days, isoprenaline-induced MI

## CC(C)=CCC[C@](C)(O[C@@H]1O[C@H](CO[C@@H]2O[C@H](CO)[C@@H](O)[C@H](O)[C@H]2O)[C@@H](O)[C@H](O)[C@H]1O)[C@H]1CC[C@]2(C)[C@@H]1[C@H](O)C[C@@H]1[C@@]3(C)CC[C@H](O[C@@H]4O[C@H](CO)[C@@H](O)[C@H](O)[C@H]4O[C@@H]4O[C@H](CO)[C@@H](O)[C@H](O)[C@H]4O)C(C)(C)[C@@H]3CC[C@]12C [Rb1, ginsenoside Rb1]
[1]; [6]
  Stability: Measured: 1.97 ± 0.29 ng/mL
  Stability: RE: -1.62%
[1]; [7]
  Stability: Measured: 386.10 ± 20.53 ng/mL
  Stability: RE: -3.47%
[1]; [8]
  Stability: Measured: 1540.64 ± 55.53 ng/mL
  Stability: RE: -3.71%
[1]; [9]
  Stability: Measured: 1.66 ± 0.17 ng/mL
  Stability: RE: -16.86%
[1]; [10]
  Stability: Measured: 376.87 ± 18.97 ng/mL
  Stability: RE: -5.78%
[1]; [11]
  Stability: Measured: 1647.48 ± 31.81 ng/mL
  Stability: RE: 2.97%
[1]; [12]
  Stability: Measured: 1.75 ± 0.23 ng/mL
  Stability: RE: -12.42%
[1]; [13]
  Stability: Measured: 394.28 ± 21.32 ng/mL
  Stability: RE: -1.43%
[1]; [14]
  Stability: Measured: 1601.88 ± 26.56 ng/mL
  Stability: RE: 0.12%
[2]
  Papp(apical→basolateral): > 0.1^c ×10^-6 cm/s
  Papp(basolateral→apical): > 0.1^c ×10^-6 cm/s
  apparent permeability in Caco-2 cell monolayers: > 10^-7 cm/s
[3]
  determination in rat plasma at the planned successive PK time points: could be determined
  detection in rat plasma: could be detected
[3]; 0.4 g/kg
  AUC(0-inf): 1930 ± 1300 ng·h/mL
  AUC(0-t): 818 ± 272 ng·h/mL
  MRT inf: 36.6 ± 17.7 h
  MRT last: 11.42 ± 0.11 h
  Tmax: 3.25 ± 3.89 h
[3]; [15]
  Cmax: 57 ± 27.3 ng/mL
[3]; [16]
  half-life: 22.9 ± 12.4 h
[3]; 0.8 g/kg
  AUC(0-inf): 1350 ± 486 ng·h/mL
  AUC(0-t): 998 ± 200 ng·h/mL
  MRT inf: 17.1 ± 4.98 h
  MRT last: 9.63 ± 0.6 h
  Tmax: 3.34 ± 3.05 h
[3]; [17]
  Cmax: > 20 ng/mL
[3]; [18]
  Cmax: 80.3 ± 19.2 ng/mL
[3]; [19]
  half-life: > 2.6 h
[3]; [20]
  half-life: 10.8 ± 4.03 h
[3]; [21]
  Cltot: 18 ± 12 mL/min/kg
[3]; [22]
  Cltot: 43.2 ± 13.5 mL/min/kg
[3]; rats, p.o. GDDP, P < 0.05
  systematic exposure (AUC0-∞), times higher than those of CTS and DHTS: 84–1137 times
  systematic exposure (AUC0-∞), times higher than those of Rd, R1, Rg1, TS IIA, and TS I: 3.5–30 times
[4]
  solubility at 5 min: > 10000 µg/mL
[5]; [23]
  anti-MI effect (overall conclusion): favorable anti-MI effect
  Histopathology of heart tissue (H&E): less severe histological damage with mild cell distortion, edema, and good continuity with adjacent myofibrils
[5]
  ECG (lead II) findings on the fifth day of the trial: T waves reversed or decreased

## CC(C)=CCC[C@](C)(O[C@@H]1O[C@H](CO)[C@@H](O)[C@H](O)[C@H]1O)[C@H]1CC[C@]2(C)[C@@H]1[C@H](O)C[C@@H]1[C@@]3(C)CC[C@H](O[C@@H]4O[C@H](CO)[C@@H](O)[C@H](O)[C@H]4O[C@@H]4O[C@H](CO)[C@@H](O)[C@H](O)[C@H]4O)C(C)(C)[C@@H]3CC[C@]12C [Rd, ginsenoside Rd]
[1]; [6]
  Stability: Measured: 1.93 ± 0.23 ng/mL
  Stability: RE: -3.59%
[1]; [7]
  Stability: Measured: 406.43 ± 27.13 ng/mL
  Stability: RE: 1.61%
[1]; [8]
  Stability: Measured: 1489.53 ± 52.70 ng/mL
  Stability: RE: -6.90%
[1]; [9]
  Stability: Measured: 1.65 ± 0.33 ng/mL
  Stability: RE: -17.56%
[1]; [10]
  Stability: Measured: 449.87 ± 18.67 ng/mL
  Stability: RE: 12.47%
[1]; [11]
  Stability: Measured: 1891.74 ± 134.38 ng/mL
  Stability: RE: 18.23%
[1]; [12]
  Stability: Measured: 1.81 ± 0.18 ng/mL
  Stability: RE: -9.59%
[1]; [13]
  Stability: Measured: 438.01 ± 11.23 ng/mL
  Stability: RE: 9.50%
[1]; [14]
  Stability: Measured: 1768.72 ± 60.05 ng/mL
  Stability: RE: 10.54%
[2]
  Papp(apical→basolateral): > 0.1^c ×10^-6 cm/s
  Papp(basolateral→apical): > 0.1^c ×10^-6 cm/s
  apparent permeability in Caco-2 cell monolayers: > 10^-7 cm/s
[3]
  determination in rat plasma at the planned successive PK time points: could be determined
  detection in rat plasma: could be detected
[3]; 0.4 g/kg
  AUC(0-inf): 340 ± 348 ng·h/mL
  AUC(0-t): 254 ± 236 ng·h/mL
  MRT inf: 12.8 ± 8.78 h
  MRT last: 8.88 ± 3.79 h
  Tmax: 9 ± 4.24 h
[3]; [15]
  Cmax: 24.5 ± 4.04 ng/mL
[3]; [16]
  half-life: 5.63 ± 5.88 h
[3]; 0.8 g/kg
  AUC(0-inf): 378 ± 56.4 ng·h/mL
  AUC(0-t): 281 ± 28.1 ng·h/mL
  MRT inf: 17.3 ± 2.01 h
  MRT last: 10.7 ± 2.31 h
  Tmax: 2.25 ± 3.25 h
[3]; [17]
  Cmax: > 20 ng/mL
[3]; [18]
  Cmax: 37.2 ± 26.3 ng/mL
[3]; [19]
  half-life: > 2.6 h
[3]; [20]
  half-life: 8.53 ± 4.42 h
[3]; [21]
  Cltot: 624.2 ± 638.8 mL/min/kg
[3]; [22]
  Cltot: 350.3 ± 310.5 mL/min/kg
[4]
  solubility at 5 min: > 10000 µg/mL
[5]; [23]
  Histopathology of heart tissue (H&E): remarkably severe histological damage with extensive myocardial lysis and architecture wrecking; also recorded: extremely severe histological damage with extensive myocardial lysis and architecture wrecking
[5]
  ECG (lead II) findings on the fifth day of the trial: ST segment elevated
